Measurements: US20250352539A1, “COMBINATION THERAPY FOR TREATING CANCER” (AstraZeneca AB, priority 2022, published 2025)
Read-outs that look alike come from different tables or passages of the source.

Columns and labels:
Type in all cases: cell-based
[1] = system: SUM149PT 53BP1 WT (CNTR) cells; experiment: Clonogenic proliferation assay (14 days, SRB); details: Homo sapiens; SUM149PT CNTR; monotherapy; read-out: IC50, clonogenic growth
Protocol: (§1) Parental BRCA1 mutant SUM149PT breast cancer cell line (Elstrodt 2006) were obtained from AstraZeneca Cell Bank at Alderley Park, Macclesfield. Cells were routinely grown in Ham's F12 media containing 5% foetal calf serum, 1% glutamine (2 mM), 500 ng/ml hydrocortisone and 5% insulin. SUM149PT 53BP1 WT (CNTR) and 53BP1 null (KO) cell pools were generated by CRISPR-Cas9 technology. Short guide (sg) RNA targeting TP53BP1 on exon 10 (GAGTAGATCGGAAAGCATC) and a non-targeting CNTR guide (GAGTAGATCGGAAAGCATC) were designed and cloned into a lentiviral vector containing a mClover3 cassette for green fluorescence signal and hygromycin cassette for selection (pKLV2-U6gRNA (Bbsl)-EF1a-mClover3-T2A-HygR-W). Lentiviruses were generated from both KO and CNTR (sg) RNA and Cas9 (pKLVEF1a-Cas9Bsd-W) plasmids and parental cells were transduced first with Cas9 lentiviruses followed by blasticidin selection and then with KO and CNTR lentiviruses followed by hygromycin selection. Loss of 53BP1 was verified by analysing 53BP1 protein expression from whole cell lysates by western blotting (Novus, NB100-304, 1:1000 dilution).
(§2) Cells were seeded onto 6-well plates, three replicates per cell line, and 24 hours later the cells were dosed with AZD6738/AZD5305. For monotherapies the cells were dosed with a 6-point concentration response of AZD6738 (0 to 0.64 μM) or AZD5305 (0 to 1 μM). For combination treatments single dose of AZD5305 (10 nM) was used with a 5-point concentration response of AZD6738 (0 to 0.64 μM) for 53BP1 KO cells. Cells were grown for 14 days for colony formation without media changes. Cells were fixed with 10% TCA (Tricloroacetic acid). 14 days after dosing any formed colonies were stained with 0.057% SRB (sulforhodamine B acid), imaged with GelCount™ (Oxford OPTRONIX) at 600 dpi resolution and the stained colony growth intensity was measured using plate reader with OD @[…]. Dose response curves were generated and IC50 concentrations were calculated using GraphPad PRISM software.

[2] = system: SUM149PT 53BP1 KO cell pools; experiment: Clonogenic proliferation assay (14 days, SRB); details: Homo sapiens; SUM149PT 53BP1 KO; monotherapy; read-out: IC50, clonogenic growth
Protocol: as §1, §2

OVK18 = experiment: 144-hour CellTiter-Glo 2.0 proliferation assay; details: OVK18 ovarian; monotherapy; read-out: mono GI50
Protocol: (§3) Combination profiling was carried out in a panel of cancer cell lines utilising Horizon Discovery's High Throughput Screening platform.
(§4) Cell lines that have been preserved in liquid nitrogen are thawed and expanded in growth media (see Table 1). Once cells have reached expected doubling times, screening begins. Cells are seeded in 25 μl of growth media in black 384-well tissue culture treated plates (seeding density as noted in Table 11).
(§5) Cells are equilibrated in assay plates via centrifugation and placed at 37° C. 5% CO2 for twenty-four hours before treatment.
(§6) Compounds are transferred to assay plates using and Echo acoustic liquid handling system. 25 nl of each compound was added at the appropriate concentration for all combination dose points. Therefore, final assay volume would be […]. Assay plates are incubated with compound for 6 days and are then analysed using CellTiter-Glo 2.0. All data points are collected via automated processes and are subject to quality control and analysed.
(§7) Growth Inhibition (GI) is reported as a measure of cell growth. The GI percentages are calculated by applying the following test and equation: […]
(§8) where T is the signal measure for a test article, V is the untreated/vehicle-treated control measure, and Vo is the untreated/vehicle control measure at time zero (also colloquially referred as T0 plates). This formula is derived from the Growth Inhibition calculation used in the National Cancer Institute's NCI-60 high throughput screen. For the purposes of this report, all data analysis was performed in Growth Inhibition (except where noted).

IM-95 = experiment: 144-hour CellTiter-Glo 2.0 proliferation assay; details: Homo sapiens, IM95; IM-95 gastric; monotherapy; read-out: mono GI50
Protocol: as §3, §4, §5, §6, §7, §8

COV362 = experiment: 144-hour CellTiter-Glo 2.0 proliferation assay; details: COV362 ovarian; monotherapy; read-out: mono GI50
Protocol: as §3, §4, §5, §6, §7, §8

LS-513 = experiment: 144-hour CellTiter-Glo 2.0 proliferation assay; details: Homo sapiens; LS-513 colorectal; monotherapy; read-out: mono GI50
Protocol: as §3, §4, §5, §6, §7, §8

BxPC-3 = experiment: 144-hour CellTiter-Glo 2.0 proliferation assay; details: monotherapy, read-out: mono GI50
Protocol: as §3, §4, §5, §6, §7, §8

MIA PaCa-2 = experiment: 144-hour CellTiter-Glo 2.0 proliferation assay; details: monotherapy, read-out: mono GI50
Protocol: as §3, §4, §5, §6, §7, §8

T98G = experiment: 7 days treatment combination assay in glioblastoma cell lines (Hoeschst positive nuclei count); details: Homo sapiens, 168 h, Adult GBM
Protocol: (§9) The assay was carried out in the following glioblastoma cell lines: • U87 • U87 R132H • T98G • SJ-G2 ctrl • SJ-G2 IDH using AZD6738 and AZD9574
(§10) The cells were seeded the day before drug treatment in 150 μl per well of 96-well plate. For SJ-G2 cells, the plates were coated with poly-Lysine solution for 15 minutes, washed twice with sterile water and dried for 1 hour.
(§11) The seeding numbers were (cells per well): U87-500; T98G-500; SJ-G2 ctrl-1000; SJ-G2 IDH.
(§12) The compounds were added via a drug dispenser according to the following scheme:
(§13) after 7 Days: • (a) for SJ-G2, 75 μl Cell Titer Glow 2.0 solution (Promega) was added and incubated for 15 minutes at 37° C. The cells were then read using a plate reader. • (b) for U87 and T98G, 75 μl of 37% formaldehyde was added and fixed for 20 minutes at room temperature. This was then washed twice with PBS, followed by Hoeschst staining for 1 hour at room temperature (Hoeschst 1:10000 in PBS). This was then washed twice in PBS and the plates sealed. The plates were then imaged on Cell Insight with 10× magnification at the 25 position. Hoeschst positive nuclei were identified as objects, and cell survival was analysed by counting objects (Hoeschst positive nuclei) with the corresponding settings for U87 or T98G.
(§14) An analysis of drug synergy was then carried out to yield a HSA score

U87 IDH WT = experiment: as above; details: 168 h, Adult GBM
Protocol: as §9, §10, §11, §12, §13, §14

U87 IDHm = experiment: as above; details: 168 h, Adult GBM
Protocol: as §9, §10, §11, §12, §13, §14

SJ-G2 WT = experiment: 7 days treatment combination assay in glioblastoma cell lines (Cell Titer Glow 2.0); details: 168 h, paediatric GBM
Protocol: as §9, §10, §11, §12, §13, §14

SJ-G2 IDHm = experiment: as above; details: 168 h, paediatric GBM
Protocol: as §9, §10, §11, §12, §13, §14

C[C@@H]1COCCN1c1cc(C2([S@](C)(=N)=O)CC2)nc(-c2ccnc3[nH]ccc23)n1 [AZD6738, 4-{4-[(3R)-3-Methylmorpholin-4-yl]-6-[1-((R)—S-methylsulfonimidoyl)cyclopropyl]pyrimidin-2-yl}-1H-pyrrolo[2,3-b]-pyridine]
IC50 [1]: ~630 nM | IC50 [2]: ~630 nM | GI50 (OVK18): 921 nM | GI50 (IM-95): 250 nM | GI50 (COV362): 1060 nM | GI50 (LS-513): 645 nM | GI50 (BxPC-3; BxPC-3 pancreatic): 1090 nM | GI50 (BxPC-3; Homo sapiens, BXPC-3, BxPC-3 pancreatic): 1080 nM | GI50 (MIA PaCa-2; Homo sapiens, MIA PaCa-2, MIA PaCa-2 pancreatic): 1200 nM | GI50 (MIA PaCa-2; MIA PaCa-2 pancreatic): 1930 nM | IC50 (T98G): 213 nM | IC50 (U87 IDH WT): 649 nM | IC50 (U87 IDHm): 766 nM | IC50 (SJ-G2 WT): 160 nM | IC50 (SJ-G2 IDHm): 308 nM
